For the assay, the target named is T1, human transferrin receptor (hTfR) (Homo sapiens, UniProt P02786).
T1 construct: made in house
The experiment in a line: Evaluation of molecular interaction between transferrin receptor (hTfR) and peptide using surface plasmon resonance (SPR). The assay is classed as binding. The following applies: peptide with linker, surface plasmon resonance; read-out: SPR (KD class for binding to hTfR). Put shortly:
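SPR, single-cycle kinetics; hTfR dimer on NTA chip via Ni capture plus EDC/NHS coupling. Analyte peptide 100, 50, 25, 10, 5 nM. Running buffer: 10 mM HEPES pH 8.0, 150 mM NaCl, 0.05% Tween 20, 0.1% BSA, 1.0% DMSO. KD by least-squares fit.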

The record followed here is patent publication US20260116920A1, “HUMAN TRANSFERRIN RECEPTOR BINDING PEPTIDE” (PEPTIDREAM INC., priority 2021, published 2026).

Starred links: 1 amine or outer side, 2 acyl side, 3 side chain; linkers in the order of their positions; H or OH if unused. Positions of bridges follow the written chain, without caps; N, C: chain ends. Non-standard residues stand in square brackets, D forms with d. Residues, ends and D or L forms follow the SMILES beside them. Groups on a side chain read outwards from the residue. *: point of attachment. Trp(1-CH2COOH) = N[C@@H](Cc1cn(CC(=O)O)c2ccccc12)C(=O)O; Nle(6-morpholino) = N[C@@H](CCCCN1CCOCC1)C(=O)O; Phe(3-COOH) = N[C@@H](Cc1cccc(C(=O)O)c1)C(=O)O; Trp(7-aza) = N[C@@H](Cc1c[nH]c2ncccc12)C(=O)O; NH(CH2CH2O)8Me = COCCOCCOCCOCCOCCOCCOCCOCCN*; NMePhe(3-Cl) = CN[C@@H](Cc1cccc(Cl)c1)C(=O)O; Piperazinyl(4-CH2COOH) = O=C(O)CN1CCN(*)CC1; 3Pal(6-NH2) = Nc1ccc(C[C@H](N)C(=O)O)cn1; NMeY = CN[C@@H](Cc1ccc(O)cc1)C(=O)O; 4Pal = N[C@@H](Cc1ccncc1)C(=O)O; PEG4 = NCCOCCOCCOCCOCCC(=O)O; Carboxymethyl = O=C(O)C*; CO = O=C([*:1])[*:2]

By Kd is commonly meant the constant that tells how readily two partners part at equilibrium.

T1 sequence (P02786 89-760 limits assumed): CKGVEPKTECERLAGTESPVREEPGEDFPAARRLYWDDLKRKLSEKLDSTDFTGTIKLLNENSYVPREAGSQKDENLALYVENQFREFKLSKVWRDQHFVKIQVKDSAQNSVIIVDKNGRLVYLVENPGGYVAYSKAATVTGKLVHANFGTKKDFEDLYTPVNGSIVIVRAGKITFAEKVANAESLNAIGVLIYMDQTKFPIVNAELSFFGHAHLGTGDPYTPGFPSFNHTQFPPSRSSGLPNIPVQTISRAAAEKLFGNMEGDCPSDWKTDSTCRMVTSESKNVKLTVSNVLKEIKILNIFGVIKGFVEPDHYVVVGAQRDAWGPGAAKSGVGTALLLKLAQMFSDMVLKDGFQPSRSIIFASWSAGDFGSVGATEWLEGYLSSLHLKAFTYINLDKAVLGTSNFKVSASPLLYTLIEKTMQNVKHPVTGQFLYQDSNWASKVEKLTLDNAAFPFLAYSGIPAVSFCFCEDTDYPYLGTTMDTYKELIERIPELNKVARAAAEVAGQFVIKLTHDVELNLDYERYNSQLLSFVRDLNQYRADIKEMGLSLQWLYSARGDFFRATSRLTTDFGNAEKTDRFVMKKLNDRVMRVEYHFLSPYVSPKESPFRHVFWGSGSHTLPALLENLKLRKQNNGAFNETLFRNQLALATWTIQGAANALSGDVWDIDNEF

Take `CC[C@H](C)[C@@H]1NC(=O)[C@H](Cc2ccc(OCC(=O)O)cc2)NC(=O)[C@H](Cc2ccc(O)cc2)NC(=O)[C@H](CC(N)=O)NC(=O)[C@H](Cc2cn(CC(=O)O)c3ccccc23)NC(=O)[C@H](C(C)C)NC(=O)[C@H](Cc2cccc(Cl)c2)N(C)C(=O)[C@H](C(C)C)NC(=O)[C@H](C)NC(=O)CSC[C@@H](C(=O)NCCOCCOCCOCCOCCC(N)=O)NC(=O)[C@H](Cc2ccc(O)cc2)N(C)C(=O)[C@H](Cc2ccncc2)NC(=O)[C@H](CCCNC(=N)N)NC(=O)[C@H](CCC(=O)NCCOCCOCCOCCOCCOCCOCCOCCOC)NC(=O)[C@H]([C@@H](C)CC)NC1=O` [compound 231]: the Kd fell in the range of 1 to 100 nM. For `CC[C@H](C)[C@@H]1NC(=O)[C@H](Cc2ccc(OCC(=O)O)cc2)NC(=O)[C@H](Cc2ccc(N)nc2)NC(=O)[C@H](CC(N)=O)NC(=O)[C@H](Cc2c[nH]c3ncccc23)NC(=O)[C@H](C(C)C)NC(=O)[C@H](Cc2cccc(Cl)c2)N(C)C(=O)[C@H](C(C)C)NC(=O)[C@H](C)NC(=O)CSC[C@@H](C(=O)NCCOCCOCCOCCOCCC(N)=O)NC(=O)[C@H](Cc2ccc(O)cc2)N(C)C(=O)[C@H](CCC(=O)NCCOCCOCCOCCOCCOCCOCCOCCOC)NC(=O)[C@H](CCCNC(=N)N)NC(=O)[C@H](CCC(=O)NCCOCCOCCOCCOCCOCCOCCOCCOC)NC(=O)[C@H]([C@@H](C)CC)NC1=O` [compound 232] ({CH2CO}-AV[NMePhe(3-Cl)]V[Trp(7-aza)]N[3Pal(6-NH2)]Y(Carboxymethyl)IIE(NH(CH2CH2O)8Me)RE(NH(CH2CH2O)8Me)[NMeY]C[PEG4]-NH2; thioether N-15) the value was 100 to 1000 nM; for `CC[C@H](C)[C@@H]1NC(=O)[C@H](Cc2ccc(OCC(=O)O)cc2)NC(=O)[C@H](Cc2ccc(N)nc2)NC(=O)[C@H](CC(N)=O)NC(=O)[C@H](Cc2c[nH]c3ncccc23)NC(=O)[C@H](C(C)C)NC(=O)[C@H](Cc2cccc(Cl)c2)N(C)C(=O)[C@H](C(C)C)NC(=O)[C@H](C)NC(=O)CSC[C@@H](C(=O)NCCOCCOCCOCCOCCC(N)=O)NC(=O)[C@H](Cc2ccc(O)cc2)N(C)C(=O)[C@H](Cc2cccc(C(=O)O)c2)NC(=O)[C@H](CCCCN2CCOCC2)NC(=O)[C@H](CCC(=O)NCCOCCOCCOCCOCCOCCOCCOCCOC)NC(=O)[C@H]([C@@H](C)CC)NC1=O` [compound 233] ({CH2CO}-AV[NMePhe(3-Cl)]V[Trp(7-aza)]N[3Pal(6-NH2)]Y(Carboxymethyl)IIE(NH(CH2CH2O)8Me)[Nle(6-morpholino)][Phe(3-COOH)][NMeY]C[PEG4]-NH2; thioether N-15), 1 to 100 nM. Take `CC[C@H](C)[C@@H]1NC(=O)[C@H](Cc2ccc(OCC(=O)O)cc2)NC(=O)[C@H](Cc2ccc(O)cc2)NC(=O)[C@H](CC(N)=O)NC(=O)[C@H](Cc2c[nH]c3ncccc23)NC(=O)[C@H](C(C)C)NC(=O)[C@H](Cc2cccc(Cl)c2)N(C)C(=O)[C@H](C(C)C)NC(=O)[C@H](C)NC(=O)CSC[C@@H](C(=O)NCCOCCOCCOCCOCCC(N)=O)NC(=O)[C@H](Cc2ccc(O)cc2)N(C)C(=O)[C@H](CCC(=O)NCCOCCOCCOCCOCCOCCOCCOCCOC)NC(=O)[C@H](CCCCN2CCOCC2)NC(=O)[C@H](CCC(=O)NCCOCCOCCOCCOCCOCCOCCOCCOC)NC(=O)[C@H]([C@@H](C)CC)NC1=O` [compound 234] ({CH2CO}-AV[NMePhe(3-Cl)]V[Trp(7-aza)]NYY(Carboxymethyl)IIE(NH(CH2CH2O)8Me)[Nle(6-morpholino)]E(NH(CH2CH2O)8Me)[NMeY]C[PEG4]-NH2; thioether N-15): the Kd fell in the range of 100 to 1000 nM. In the case of `CC[C@H](C)[C@@H]1NC(=O)[C@H](Cc2ccc(OC)cc2)NC(=O)[C@H](Cc2ccc(O)cc2)NC(=O)[C@H](CC(N)=O)NC(=O)[C@H](Cc2c[nH]c3ncccc23)NC(=O)[C@H](C(C)C)NC(=O)[C@H](Cc2cccc(Cl)c2)N(C)C(=O)[C@H](C(C)C)NC(=O)[C@H](C)NC(=O)CSC[C@@H](C(=O)NCCOCCOCCOCCOCCC(N)=O)NC(=O)[C@H](Cc2ccc(O)cc2)N(C)C(=O)[C@H](CCC(=O)NCCOCCOCCOCCOCCOCCOCCOCCOC)NC(=O)[C@H](CCCCN2CCOCC2)NC(=O)[C@H](CCC(=O)NCCOCCOCCOCCOCCOCCOCCOCCOC)NC(=O)[C@H]([C@@H](C)CC)NC1=O` [compound 235] ({CH2CO}-AV[NMePhe(3-Cl)]V[Trp(7-aza)]NYY(Me)IIE(NH(CH2CH2O)8Me)[Nle(6-morpholino)]E(NH(CH2CH2O)8Me)[NMeY]C[PEG4]-NH2; thioether N-15) it was 1 to 100 nM; in that of `CC[C@H](C)[C@@H]1NC(=O)[C@H](Cc2ccc(OC)cc2)NC(=O)[C@H](Cc2ccc(N)nc2)NC(=O)[C@H](CC(N)=O)NC(=O)[C@H](Cc2c[nH]c3ncccc23)NC(=O)[C@H](C(C)C)NC(=O)[C@H](Cc2cccc(Cl)c2)N(C)C(=O)[C@H](C(C)C)NC(=O)[C@H](C)NC(=O)CSC[C@@H](C(=O)NCCOCCOCCOCCOCCC(N)=O)NC(=O)[C@H](Cc2ccc(O)cc2)N(C)C(=O)[C@H](Cc2ccncc2)NC(=O)[C@H](CCCCN2CCOCC2)NC(=O)[C@H](CCC(=O)NCCOCCOCCOCCOCCOCCOCCOCCOC)NC(=O)[C@H]([C@@H](C)CC)NC1=O` [compound 236] ({CH2CO}-AV[NMePhe(3-Cl)]V[Trp(7-aza)]N[3Pal(6-NH2)]Y(Me)IIE(NH(CH2CH2O)8Me)[Nle(6-morpholino)][4Pal][NMeY]C[PEG4]-NH2; thioether N-15), 1 to 100 nM. As for `CC[C@H](C)[C@@H]1NC(=O)[C@H](Cc2ccc(OC)cc2)NC(=O)[C@H](Cc2ccc(N)nc2)NC(=O)[C@H](CC(N)=O)NC(=O)[C@H](Cc2c[nH]c3ncccc23)NC(=O)[C@H](C(C)C)NC(=O)[C@H](Cc2cccc(Cl)c2)N(C)C(=O)[C@H](C(C)C)NC(=O)[C@H](C)NC(=O)CSC[C@@H](C(=O)NCCOCCOCCOCCOCCC(N)=O)NC(=O)[C@H](Cc2ccc(O)cc2)N(C)C(=O)[C@H](Cc2ccncc2)NC(=O)[C@H](CCCCNC(=O)N2CCN(CC(=O)O)CC2)NC(=O)[C@H](CCC(=O)NCCOCCOCCOCCOCCOCCOCCOCCOC)NC(=O)[C@H]([C@@H](C)CC)NC1=O` [compound 237] ({CH2CO}-AV[NMePhe(3-Cl)]V[Trp(7-aza)]N[3Pal(6-NH2)]Y(Me)IIE(NH(CH2CH2O)8Me)K([CO-Piperazinyl(4-CH2COOH)])[4Pal][NMeY]C[PEG4]-NH2; thioether N-15), the Kd lay in the range of 1 to 100 nM. `CC[C@H](C)[C@@H]1NC(=O)[C@H](Cc2ccc(OCC(=O)O)cc2)NC(=O)[C@H](Cc2ccc(N)nc2)NC(=O)[C@H](CC(N)=O)NC(=O)[C@H](Cc2c[nH]c3ccccc23)NC(=O)[C@H](C(C)C)NC(=O)[C@H](Cc2cccc(Cl)c2)N(C)C(=O)[C@H](C(C)C)NC(=O)[C@H](C)NC(=O)CSC[C@@H](C(=O)NCCOCCOCCOCCOCCC(N)=O)NC(=O)[C@H](Cc2ccc(O)cc2)N(C)C(=O)[C@H](Cc2cccc(C(=O)O)c2)NC(=O)[C@H](CCCNC(=N)N)NC(=O)[C@H](CCC(=O)NCCOCCOCCOCCOCCOCCOCCOCCOC)NC(=O)[C@H]([C@@H](C)CC)NC1=O` [compound 238] ({CH2CO}-AV[NMePhe(3-Cl)]VWN[3Pal(6-NH2)]Y(Carboxymethyl)IIE(NH(CH2CH2O)8Me)R[Phe(3-COOH)][NMeY]C[PEG4]-NH2; thioether N-15): the dissociation constant (Kd) is 1 to 100 nM. Take `CC[C@H](C)[C@@H]1NC(=O)[C@H](Cc2ccc(OCC(=O)O)cc2)NC(=O)[C@H](Cc2ccc(N)nc2)NC(=O)[C@H](CC(N)=O)NC(=O)[C@H](Cc2c[nH]c3ncccc23)NC(=O)[C@H](C(C)C)NC(=O)[C@H](Cc2cccc(Cl)c2)N(C)C(=O)[C@H](C(C)C)NC(=O)[C@H](C)NC(=O)CSC[C@@H](C(=O)NCCOCCOCCOCCOCCC(N)=O)NC(=O)[C@H](Cc2ccc(O)cc2)N(C)C(=O)[C@H](Cc2cccc(C(=O)O)c2)NC(=O)[C@H](CCCNC(=N)N)NC(=O)[C@H](CCC(=O)NCCOCCOCCOCCOCCOCCOCCOCCOC)NC(=O)[C@H]([C@@H](C)CC)NC1=O` [compound 239] ({CH2CO}-AV[NMePhe(3-Cl)]V[Trp(7-aza)]N[3Pal(6-NH2)]Y(Carboxymethyl)IIE(NH(CH2CH2O)8Me)R[Phe(3-COOH)][NMeY]C[PEG4]-NH2; thioether N-15): the Kd lay within 1 to 100 nM. On to `CC[C@H](C)[C@@H]1NC(=O)[C@H](Cc2ccc(OCC(=O)O)cc2)NC(=O)[C@H](Cc2ccc(O)cc2)NC(=O)[C@H](CC(N)=O)NC(=O)[C@H](Cc2cn(CC(=O)O)c3ccccc23)NC(=O)[C@H](C(C)C)NC(=O)[C@H](Cc2cccc(Cl)c2)N(C)C(=O)[C@H](C(C)C)NC(=O)[C@H](C)NC(=O)CSC[C@@H](C(=O)NCCOCCOCCOCCOCCC(N)=O)NC(=O)[C@H](Cc2ccc(O)cc2)N(C)C(=O)[C@H](Cc2cccc(C(=O)O)c2)NC(=O)[C@H](CCCCN2CCOCC2)NC(=O)[C@H](CCCCN2CCOCC2)NC(=O)[C@H]([C@@H](C)CC)NC1=O` [compound 240] ({CH2CO}-AV[NMePhe(3-Cl)]V[Trp(1-CH2COOH)]NYY(Carboxymethyl)II[Nle(6-morpholino)][Nle(6-morpholino)][Phe(3-COOH)][NMeY]C[PEG4]-NH2; thioether N-15), for which the Kd lay within 1 to 100 nM. With `CC[C@H](C)[C@@H]1NC(=O)[C@H](Cc2ccc(O)cc2)NC(=O)[C@H](Cc2ccc(O)cc2)NC(=O)[C@H](CC(N)=O)NC(=O)[C@H](Cc2c[nH]c3ccccc23)N(C)C(=O)[C@H](C(C)C)NC(=O)[C@H](Cc2ccccc2)N(C)C(=O)[C@H](C(C)C)NC(=O)[C@H](C)NC(=O)CSC[C@@H](C(=O)NCC(=O)N[C@H](CCC(=O)O)C(=O)N[C@H](CCC(=O)O)C(=O)N[C@H](CCC(=O)O)C(=O)N[C@H](CO)C(=O)N[C@H](CO)C(=O)N[C@@H](CCCCN=[N+]=[N-])C(N)=O)NC(=O)[C@H](Cc2ccc(O)cc2)N(C)C(=O)[C@H](Cc2ccc(O)cc2)NC(=O)[C@H](CCCNC(=N)N)NC(=O)[C@H](CCCCN)NC(=O)[C@H]([C@@H](C)CC)NC1=O` [compound 241], the dissociation constant Kd was in the range of 1 to 100 nM.
